# Patent publication US7547804B2, “Compounds, compositions, and methods employing same” (Myriad Genetics, Inc., priority 2002, dated 2009)
# pEC50: −log10 of the molar value.
# Tested on: LNCaP cell lines
# Test: WST-1 Cell Proliferation and Viability Assay
# Assay type: cell-based
# Conditions: Homo sapiens; LNCaP cells, compound incubation 18-72 hours
# Procedure: WST-1 Cell Proliferation and Viability Assay
# Cell proliferation and cell viability was assessed using the tetrazolium salt WST-1 (Roche Applied Science, Indianapolis Ind.). The assay is based on the cleavage of WST-1 (light red) by mitochondrial dehydrogenase causing the formation of formazan (dark red), which can be measured on an optical density (O.D.) reader. LNCaP cell lines were plated in 96 well tissue culture plates (Corning Costar, N.Y.) at a density of 5000 cells/well in 150 μl complete media phenol-red free (RPMI-1640 [Invitrogen, Carlsbad Calif.] and 10% fetal calf serum). This plate is termed the assay plate. After the cells are plated, they are then incubated overnight at 37 degrees Celsius in a humidified chamber containing 5% CO2 (incubator).
# Compounds are added to the assay plate in 50 μl of complete media and 0.4% DMSO (v:v) making the final DMSO concentration 0.1%. The assay plate is then returned to the incubator for 18-72 hours. WST-1 reagent is then added (20 μl/well) and the plate is placed on an ELISA plate shaker for 30 minutes at room temperature. Plates are then transferred back to the incubator for an additional 3 hours. Plates are then read on a 96 well plate O.D. reader at A490-A650.
row,Structure (SMILES),pEC50
1,O=C(Nc1cc(Cl)ccc1OCCc1ccccc1Cl)c1cc(Cl)ccc1O [Compound 110],6.00
2,O=C(Nc1cc(Cl)ccc1OCCc1cccc(F)c1)c1cc(Cl)ccc1O [Compound 111],6.00
3,COc1cccc(CCOc2ccc(Cl)cc2NC(=O)c2cc(Cl)ccc2O)c1 [Compound 112],5.70
4,Cc1cccc(NC(=O)c2cc(Cl)ccc2O)c1 [Compound 113],5.10
5,Cc1ccc(NC(=O)c2cc(Cl)ccc2O)cc1 [Compound 114],5.00
6,O=C(Nc1cc(Cl)ccc1OCC(c1ccccc1)c1ccccc1)c1cc(Cl)ccc1O [Compound 117],5.70
7,O=C(NCc1cc(C(F)(F)F)cc(C(F)(F)F)c1)c1cc(Cl)ccc1O [Compound 122],5.05
8,O=CNc1cc(Cl)cc(C(=O)Nc2cccc(OCCc3ccccc3)c2)c1O [Compound 124],5.10
9,O=C(Nc1cccc(OCCc2cccc(C(F)(F)F)c2)c1)c1cc(Cl)ccc1O [Compound 125],5.22
10,O=C(Nc1ccccc1OC1CCCC[C@H]1c1ccccc1)c1cc(Cl)ccc1O (some centres unmarked) [Compound 126],5.22
11,CCC(COc1cc(NC(=O)c2cc(Cl)ccc2O)ccc1C)c1ccccc1 (centres unmarked) [Compound 127],5.70
12,CCC(COc1ccc(C)c(NC(=O)c2cc(Cl)ccc2O)c1)c1ccccc1 (centres unmarked) [Compound 128],5.70
13,O=C(Nc1cc(C(F)(F)F)ccc1OCCc1ccc(Cl)cc1)c1cc(Cl)ccc1O [Compound 129],6.10
14,O=C(Nc1cc(C(F)(F)F)cc(Cl)c1OCCc1ccc(C(F)(F)F)cc1)c1cc(Cl)ccc1O [Compound 130],5.70
15,Cc1cc(C)c(OCCc2ccccc2C(F)(F)F)c(NC(=O)c2cc(Cl)ccc2O)c1 [Compound 131],5.70
16,Cc1oc(-c2ccccc2)nc1CCOc1ccc(Cl)cc1NC(=O)c1cc(Cl)ccc1O [Compound 132],5.30
17,COc1ccccc1CCOc1ccc(Cl)cc1NC(=O)c1cc(Cl)ccc1O [Compound 133],5.52
18,O=C(Nc1cc(C(F)(F)F)ccc1OCCc1ccccc1C(F)(F)F)c1cc(Cl)ccc1O [Compound 134],6.05
19,Cc1cc(C)c(CCOc2ccc(C(F)(F)F)cc2NC(=O)c2cc(Cl)ccc2O)c(C)c1 [Compound 135],6.10
20,Cc1cc(OCCc2ccccc2C(F)(F)F)c(NC(=O)c2cc(Cl)ccc2O)cc1Cl [Compound 136],6.00
21,O=C(Nc1cccc(Cl)c1OCCc1ccccc1C(F)(F)F)c1cc(Cl)ccc1O [Compound 137],5.30
22,O=C(Nc1cccc(OCCc2ccccc2C(F)(F)F)c1)c1cc(Cl)ccc1O [Compound 138],5.22
23,N#Cc1ccc(OCCc2ccccc2C(F)(F)F)c(NC(=O)c2cc(Cl)ccc2O)c1 [Compound 140],5.52
24,O=C(Nc1cc(C(F)(F)F)ccc1OCCCc1ccccc1)c1cc(Cl)ccc1O [Compound 141],6.00

row,Structure (SMILES),pEC50
1,Cc1ccc(OCCc2ccccc2C(F)(F)F)c(NC(=O)c2cc(Cl)ccc2O)c1 [Compound 142],5.52
2,O=C(NCCc1cccc(OCCc2ccccc2)c1)c1cc(Cl)ccc1O [Compound 143],4.85
3,Cc1cccc(-c2cccc(CNC(=O)c3cc(Cl)ccc3O)c2)c1 [Compound 145],4.77
4,COc1ccc(OCCc2ccccc2)c(NC(=O)c2cc(Cl)ccc2O)c1 [Compound 147],5.22
5,Cc1ccc(OCCc2ccccc2)c(NC(=O)c2cc(Cl)ccc2O)c1 [Compound 149],5.40
6,Cc1ccc(NC(=O)c2cc(Cl)ccc2O)c(OCCc2ccccc2)c1 [Compound 150],5.22
7,N#Cc1ccc(OCCc2ccccc2)c(NC(=O)c2cc(Cl)ccc2O)c1 [Compound 152],5.15
8,Cc1cc(OCCc2ccccc2)c(NC(=O)c2cc(Cl)ccc2O)cc1Cl [Compound 153],6.00
9,O=C(Nc1cccc(Cl)c1OCCc1ccccc1)c1cc(Cl)ccc1O [Compound 154],5.40
10,O=C(Nc1cc(C(F)(F)F)ccc1OCCc1cccc(C(F)(F)F)c1)c1cc(Cl)ccc1O [Compound 155],6.40
11,O=C(Nc1ccc(OCCc2ccccc2)cc1C(F)(F)F)c1cc(Cl)ccc1O [Compound 156],4.80
12,Cc1ccc(OCCc2cccc(C(F)(F)F)c2)c(NC(=O)c2cc(Cl)ccc2O)c1 [Compound 157],5.70
13,O=C(Nc1cccc(Cl)c1OCCc1cccc(C(F)(F)F)c1)c1cc(Cl)ccc1O [Compound 158],5.70
14,Cc1cc(C)c(OCCc2cccc(C(F)(F)F)c2)c(NC(=O)c2cc(Cl)ccc2O)c1 [Compound 159],5.70
15,O=C(Nc1cc(C(F)(F)F)ccc1OCCc1ccc(C(F)(F)F)cc1)c1cc(Cl)ccc1O [Compound 160],6.15
16,O=C(Nc1cc(Cl)ccc1OCCc1ccc(OC(F)(F)F)cc1)c1cc(Cl)ccc1O [Compound 161],6.00
17,O=C(Nc1cc(C(F)(F)F)ccc1OCCc1ccc(OC(F)(F)F)cc1)c1cc(Cl)ccc1O [Compound 162],6.05
18,O=C(Nc1cc(Cl)cc(Cl)c1OCCc1ccc(CC(F)(F)F)cc1)c1cc(Cl)ccc1O [Compound 163],5.70
19,Cc1cc(OCCc2ccc(CC(F)(F)F)cc2)c(NC(=O)c2cc(Cl)ccc2O)cc1Cl [Compound 164],6.00
20,O=C(Nc1cc(Cl)ccc1OCCc1ccccc1)c1cnc2cc(C(F)(F)F)ccc2c1O [Compound 166],5.00
21,O=C(Nc1cc(Cl)ccc1OCCc1ccccc1C(F)(F)F)c1cnc2cc(C(F)(F)F)ccc2c1O [Compound 167],5.22
22,O=C(Nc1ccccc1)c1cc(Cl)ccc1O [Compound 168],4.77
23,O=C(Nc1cc(C(F)(F)F)cc(C(F)(F)F)c1)c1cc(Cl)ccc1O [Compound 169],5.70
24,COc1ccc(OCCc2ccccc2C(F)(F)F)c(NC(=O)c2cc(Cl)ccc2O)c1 [Compound 170],5.40

row,Structure (SMILES),pEC50
1,Cc1ccc(NC(=O)c2cc(Cl)ccc2O)c(OCCc2ccccc2C(F)(F)F)c1 [Compound 171],5.30
2,O=C(Nc1cc(Cl)cc(Cl)c1OCCc1ccccc1C(F)(F)F)c1cc(Cl)ccc1O [Compound 172],5.52
3,Cc1cccc(OCCc2ccccc2C(F)(F)F)c1NC(=O)c1cc(Cl)ccc1O [Compound 173],4.96
4,CC(C)c1ccccc1-c1cccc(CNC(=O)c2cc(Cl)ccc2O)c1 [Compound 174],4.96
5,CC(C)c1cccc(-c2cccc(CNC(=O)c3cc(Cl)ccc3O)c2)c1 [Compound 175],4.85
6,COc1ccccc1CCOc1cccc(NC(=O)c2ccc(F)cc2O)c1 [Compound 180],4.92
7,COc1ccc(C(=O)Nc2cccc(OCCc3ccccc3OC)c2)c(O)c1 [Compound 182],4.64
8,COc1ccccc1CCOc1cccc(NC(=O)c2cc(F)ccc2O)c1 [Compound 183],4.72
9,O=C(Nc1cccc(OCCc2ccccc2)c1)c1cc(F)ccc1O [Compound 184],4.82
10,COc1ccc(C(=O)Nc2cccc(OCCc3ccccc3)c2)c(O)c1 [Compound 185],4.49
11,COc1ccc(O)c(C(=O)Nc2cccc(OCCc3ccccc3OC)c2)c1 [Compound 186],4.66
12,COc1ccc(O)c(C(=O)Nc2cccc(OCCc3ccccc3)c2)c1 [Compound 187],4.52
13,O=C(NCc1cccc(-c2ccccc2)c1)c1ccc(F)cc1O [Compound 189],4.52
14,O=C(NCc1cccc(-c2ccccc2)c1)c1cc(F)ccc1O [Compound 190],4.46
15,O=C(Nc1cccc(OCCc2ccccc2)c1)c1ccc(F)cc1O [Compound 191],4.82
16,O=C(NCc1cccc(-c2ccccc2)c1)c1cc(Br)ccc1O [Compound 192],4.52
17,O=C(Nc1cccc(OCCc2ccccc2)c1)c1cc(Br)ccc1O [Compound 193],5.15
18,COc1ccccc1CCOc1cccc(NC(=O)c2cc(Br)ccc2O)c1 [Compound 194],5.05
19,O=C(Nc1cccc(OCCc2ccccc2)c1)c1ccccc1O [Compound 197],4.59
20,COc1ccccc1CCOc1cccc(NC(=O)c2ccccc2O)c1 [Compound 198],4.68
21,CC(C)c1cc(C(=O)Nc2cccc(OCCc3ccccc3)c2)c(O)c(C(C)C)c1 [Compound 200],4.43
22,CC(C)c1cccc(C(=O)Nc2cccc(OCCc3ccccc3)c2)c1O [Compound 201],4.48

# Same assay, conditions: Homo sapiens; LNCaP cells; flagged "Estimated": based on actual data at different concentrations
row,Structure (SMILES),pEC50
1,O=C(NCc1ccccc1OCCc1ccccc1)c1cc(Cl)ccc1O [Compound 116],4.52
2,O=C(NCCc1ccccc1Oc1ccccc1)c1cc(Cl)ccc1O [Compound 118],4.52
3,O=C(NCCc1ccccc1OCc1ccccc1)c1cc(Cl)ccc1O [Compound 119],4.70
4,Cc1c(CNC(=O)c2cc(Cl)ccc2O)cccc1-c1ccccc1 [Compound 120],4.74
5,O=C(NCc1cccc(C(F)(F)F)c1)c1cc(Cl)ccc1O [Compound 121],4.52
6,O=C(Nc1cccc(OCCc2ccccc2)c1)c1cc(Cl)cc([N+](=O)[O-])c1O [Compound 123],4.52
7,Cc1ccccc1-c1cccc(CNC(=O)c2cc(Cl)ccc2O)c1 [Compound 144],4.52
8,CCc1ccccc1-c1cccc(CNC(=O)c2cc(Cl)ccc2O)c1 [Compound 146],4.52
9,O=C(Nc1cc(NC(=O)c2cc(Cl)ccc2O)cc(C(F)(F)F)c1)c1cc(Cl)ccc1O [Compound 151],4.52
10,O=C(NCc1cccc(-c2ccccc2)c1)c1ccccc1O [Compound 199],4.33
